# Test results published in PubChem BioAssay AID1996.
# Settings: buffer; pH 7.4; 200.0 µM
row,SMILES,solubility kinetic [µg/mL]
1,COc1ccccc1/C=C/C(=O)NC(=S)Nc1ccccn1,1.3
2,Cc1cccc(C)c1NC(=O)COC(=O)[C@@H]1CCCN1C(=O)c1cccs1,> 58
3,C#CCOC(=O)CN1C(=O)c2cccc3cccc(c23)C1=O,< 0.6
4,Cc1ccc(OCC(=O)O/N=C(\N)c2ccccn2)cc1,> 42.8
5,Cc1c(Cl)cn2c(=O)cc(CN3CCN(c4ccc(F)cc4)CC3)nc2c1Cl,5
6,O=C1CSC(c2ccccc2)N1CCc1ccccc1 (stereo not given),29.6
7,Cn1nnc(NC(=O)c2ccc(Br)o2)n1,> 40.8
8,O=C(C#Cc1ccccc1)Nc1ccc(F)cc1,2.4
9,COCCNc1ccc(N2C(=O)CCCC2=O)cc1[N+](=O)[O-],45.8
10,O=S(=O)(c1ccc(F)cc1)N1CCN(c2ncccn2)CC1,8.3
11,Cc1ccc(C)c(NC(=S)N(C)CCO)c1,> 35.8
12,O=C(NCCNC1CCCCC1)c1ccco1,26.2
13,CN(C)Cc1ccccc1Sc1ccc2c(c1)CCCC2.O=C(O)C(=O)O,5.5
14,Cc1cc(NC(=O)CSc2nc(C)c(C)n2CC(C)C)no1,> 48.4
15,CCCC/C(=N/O)c1c(C)[nH]c2ccccc12,30.7
16,Cc1ccc(C(=O)NC2CC(C)(C)NC(C)(C)C2)cc1,40.2
17,CCSC(=O)NC1CCCCC1,14.4
18,CC(C)n1c(SCC(=O)NC2CCCCC2)nnc1-c1ccco1,> 52.3
19,CCc1ccc(Oc2ncnc(N)c2[N+](=O)[O-])cc1,5
20,O=C(COC(=O)Cc1c(Cl)cccc1Cl)NCc1ccco1,> 51.3
21,O=C(NCc1ccccn1)C1CC(c2ccccc2Cl)=NO1 (stereo not given),> 47.4
22,Br.Nc1nc2c(s1)CCc1ccccc1-2,40.3
23,Cc1cc2c(cc1S(=O)(=O)N(C)c1ccccc1)n(C)c(=O)n2C,> 51.8
24,Cc1ccc(NC(=O)CNc2cccc(Br)c2)cc1S(=O)(=O)N1CCOCC1,14.3

row,SMILES,solubility kinetic [µg/mL]
1,O=C(COC(=O)c1ccccc1F)Nc1ccc(S(=O)(=O)N2CCOCC2)cc1,38
2,O=c1[nH]cnc2sc3c(c12)CN(Cc1ccccc1)CC3,21.3
3,CC1CCc2ccccc2N1C(=N)N(C)C.Cl (stereo not given),> 38.1
4,COc1ccc(-c2cncnc2-c2ccc(OC)cc2O)cc1,38.6
5,O=C1NC(Cc2c[nH]c3ccccc23)C(=O)N1Cc1ccccc1 (stereo not given),> 47.9
6,Clc1ccc(OCCN2CCOCC2)cc1,28.7
7,CC(=O)C1C(c2ccc([N+](=O)[O-])cc2)c2c(noc2C)CC1(C)O (stereo not given),> 49.6
8,CCC(C)NC(=O)c1ccc(CSCc2ccc(Cl)cc2)o1 (stereo not given),22.6
9,COC(=O)c1c(C)oc(C)c1S(=O)(=O)NCc1cccs1,43.4
10,O=c1[nH]c(=S)[nH]c2scc(-c3ccc(Br)cc3)c12,9.1
11,Cc1ccccc1NC1=NC(=S)N(CC(N)=O)C12CCOC(C)(C)C2 (stereo not given),> 54.1
12,CCN(CC(=O)N1CCCCC1)S(=O)(=O)c1ccccc1,42.4
13,COc1ccc(C(=O)CSc2[nH]c(=O)cc(C(F)(F)F)c2C#N)cc1,> 55.2
14,CCOC(=O)CC(=O)c1[nH]c(C)c(C(=O)OCC)c1C,14.3
15,CN(C)CCNC(=O)C(c1ccccc1)c1ccccc1,37.9
16,COc1cccc(OC)c1C(=O)Nc1cccnc1,> 38.7
17,NS(=O)(=O)c1cccc(NC(=O)COC(=O)/C=C/c2nc3ccccc3s2)c1,22.8
18,CN1CCN(NC(=O)c2cccc(C(F)(F)F)c2)CC1,> 43.1
19,CSc1ccccc1NC(=O)CCc1ccccc1,35.5
20,Cc1cccc(CCN=C(N)NS(=O)(=O)c2ccccc2)c1,> 47.6
21,Cc1cccc(CSc2ncnc3ccccc23)c1,0.4
22,CC1Oc2ccccc2N(CC(=O)NCc2ccc3c(c2)OCO3)C1=O (stereo not given),18.9
23,CC(=O)c1ccc(S(=O)(=O)N2CCNC(=O)C2)cc1,> 42.3
24,COC(=O)c1nc[nH]c1C(=O)OC,> 27.6

row,SMILES,solubility kinetic [µg/mL]
1,CCOC(=O)c1c(C)nsc1NC(=O)C1CCCCC1,8.3
2,O=C(COC(=O)c1c[nH]c2ccccc12)Nc1ccccc1,1.9
3,N/C(=N\c1nc2ccccc2o1)NC(=O)c1ccccc1Br,< 0.2
4,CCCCN(CC)S(=O)(=O)c1ccc2c(c1)n(C)c(=O)c(=O)n2C,2.8
5,CCc1ccc(S(=O)(=O)Nc2ccc(Cl)cn2)cc1,8.3
6,CC(NC(=O)COC(=O)Cc1ccc(Cl)cc1)c1ccccc1 (stereo not given),> 49.8
7,CCCC(C)NC(=O)CN1C(=O)c2cccc3cccc1c23 (stereo not given),8.3
8,COc1ccc(CCNC(=O)CCC(=O)NC2CCCCC2)cc1OC,> 54.4
9,CCCN1CN=C(Nc2nc3ccccc3o2)NC1,18.9
10,Cc1ccc(Cl)cc1NC(=O)C1CC1c1ccccc1 (stereo not given),< 0.6
11,COc1cccc(-n2c(/C=C/c3ccccn3)nc3ccccc3c2=O)c1,0.5
12,O=C(NCCOC(=O)c1ccccc1)c1ccccc1,> 40.4
13,CCOc1ccc(NC(=O)N(c2ccccc2)c2ccccc2)cc1,2.5
14,COc1cccc(Nc2ncc(C#N)c(N)n2)c1,31.9
15,CCOc1ccc(C(=O)COC(=O)CNC(=O)C2CCCCC2)cc1,9.5
16,CCN1CCN(c2nc(NCCO)c3ccccc3n2)CC1.Cl,48
17,CCC[C@@H]1C[C@@H](C(=O)N[C@@H]([C@H]2O[C@H](SC)[C@H](O)[C@@H](O)[C@@H]2O)[C@@H](C)O)N(C)C1.Cl,> 66.5
18,Cn1cccc1C1C(C#N)=C(N)OC2=C1C(=O)CCC2 (stereo not given),> 40.4
19,COc1ccc(C(=O)Nc2ccc(CN3CCOCC3)cc2)cc1Br,14.1
20,Cc1ccc(NC(=O)COC(=O)c2cccnc2Cl)cc1S(=O)(=O)N1CCOCC1,66
21,O=C(CSc1ccncc1)Nc1ccc2ccccc2c1,2.3
22,Fc1c(F)c(F)c(NC2=NCCCCC2)c(F)c1F,> 41.7
23,Cc1cnc(C(=O)OCC(=O)NCc2ccc(Cl)cc2)cn1,> 48
24,CCOC(=O)CC(NC(=O)c1ccc(C)cc1)c1ccc(OC)cc1 (stereo not given),8.5

row,SMILES,solubility kinetic [µg/mL]
1,O=C1c2ccccc2CN1Cc1ccccc1,> 33.5
2,CCn1c(CN(C)c2ccccc2)nc2ccccc21,> 39.8
3,O=C(COC(=O)c1ccc[nH]c1=O)Nc1ccc(N2CCCCC2)cc1,> 53.3
4,CCN(C(=O)COC(=O)c1ccc(Cl)c(S(=O)(=O)N2CCCCC2)c1)C1CCS(=O)(=O)C1 (stereo not given),56.6
5,COC(=O)C1CCN(CC(=O)NC(=O)NC2CCCCC2)CC1,> 48.8
6,COc1ccc(CNC(=O)COc2cc(O)c3c(c2)OC(C)(C)CC3=O)cc1,43.5
7,O=C(NCCCn1ccnc1)c1c(F)cccc1F,38
8,Cc1onc(C(=O)N2CCN(c3ccccc3)CC2)c1[N+](=O)[O-],> 47.4
9,Cc1noc(C(=O)Nc2ccc(F)c(Cl)c2)c1Cl,1.4
10,O=[N+]([O-])c1ccccc1S(=O)(=O)N/C(=N/S(=O)(=O)c1ccccc1)c1ccccc1,> 66.8
11,CCN(CC)Cc1c(O)ccc2occ(C(=O)c3ccccc3)c12,37.7
12,Cc1cc(C(=O)Nc2ccc(N3CCOCC3)c(Cl)c2)c(C)o1,45.6
13,CCc1noc(C)c1C(=O)OC(C)C(=O)Nc1ccc2c(c1)OCO2 (stereo not given),14.4
14,Cc1ccsc1C(=O)NCc1ccccc1Cl,> 39.9
15,O=C1CSC(=Nc2ccc(F)cc2)N1,> 31.5
16,O=C(Nc1ccon1)Nc1ccc(Cl)cc1Cl,1.6
17,COc1ccc2oc(=O)c(C(=O)NCc3ccc(C)cc3)cc2c1,< 0.7
18,O=C(NC1CCCCC1)c1ccc2c(c1)OCO2,> 37.1
19,Cc1ccc(S(=O)(=O)CC(=O)N2CC(C)OC(C)C2)cc1 (stereo not given),> 46.7
20,Cc1ccc(C)c(OC(=O)C2CSC3(C)CCC(=O)N23)c1C (stereo not given),44.2
21,CN(C)c1cccc(C(=O)OCC(=O)c2ccc[nH]2)c1,> 40.8
22,COc1ccc(-c2nc3c(s2)CN(S(C)(=O)=O)CC3)cc1OC,10.6
23,O=C(Cn1cc(C(=O)c2ccccc2F)c2ccccc21)NC1CC1,2
24,O=C(Nc1cccnc1)c1ccc([N+](=O)[O-])s1,9.9

row,SMILES,solubility kinetic [µg/mL]
1,COc1ccc(CNC(=O)Cc2cccs2)cc1OC,42.6
2,Cc1ccccc1/C=C\c1nc2ccccc2c(=O)[nH]1,1.2
3,COc1ncnc2c1oc1nc(C)c3c(c12)CC(C)(C)OC3,4.9
4,CCN1C(=O)C(=O)N(CC(=O)Nc2cccc(C(F)(F)F)c2)C1=O,> 51.5
5,CSc1sc(C(=O)N2CCCCC2)c(-c2cccs2)c1C#N,31.6
6,O=C(COc1ccc2ccc(=O)oc2c1)NC1CCCCC1,> 45.2
7,COc1cccc(NC(=O)CSc2nc(C3CC3)nc3ccccc23)c1,< 0.3
8,COc1ccc2oc(C(=O)Nc3nc(C)cs3)c(C)c2c1,4.8
9,Cc1ccc(OC(=O)c2ccncc2)c(C)c1,23.9
10,O=c1cc(Cl)[nH]c(=O)n1Cc1ccc(F)cc1,34.9
11,Cc1cc(C(=O)NNC(=O)C(CCC(N)=O)NS(=O)(=O)c2ccc(Cl)cc2)c(C)o1 (stereo not given),> 68.5
12,CCOC(=O)CCn1cnc2ccc([N+](=O)[O-])cc2c1=O,25.2
13,O=C(O)C1CCCN(S(=O)(=O)Cc2ccccc2)C1 (stereo not given),37.7
14,CN(CC(=O)Nc1ccccc1Cl)C1CCCCC1,14.7
15,COc1ccc(C)cc1S(=O)(=O)N1CCCCCC1,40.7
16,COc1ccc(CNC(=O)Cc2cn(C)c3ccccc23)c(OC)c1,> 50.8
17,O=C(Nc1cc(Cl)ccc1F)C1=COCCO1,> 38.6
18,O=Cc1c(N2CCC3(CC2)OCCO3)nc2ccccn2c1=O,> 47.3
19,Nc1cc(N)nc(SCC(=O)NCC(=O)Nc2ccc(F)c(F)c2F)n1,51.3
20,Cc1ccccc1NC(=O)Nc1cnccn1,12.4
21,O=C1Nc2ccccc2CCc2ccccc21,> 33.5
22,Cc1cc(C)nc(/N=c2/ssnc2Cl)c1,1.8
23,COc1ccc2oc(C(=O)N3CCN(c4ncccn4)CC3)c(C)c2c1,4.8
24,Cc1ccc(S(=O)(=O)NCCC(=O)Oc2ccc3ccc(=O)oc3c2)cc1,25.5
